“And” between values parts separate entries of the source, which are not always exact repeats. Equal entries are not always repeated.
How the values were obtained:
[1] = molecular target: T1, 5HT1F (Homo sapiens, UniProt P30939); assay: β-arrestin2 recruitment (Tango); type: cell-based; conditions: for β-arrestin2 recruitment response, agonist mode (single replicate values): Fig_S10j; for Fig_S10j dose-response, drug alone (agonist mode), β-arrestin2 recruitment: single replicate values
T1 construct: expressed in transfected cells; host or cells: HTLA cells expressing TEV-fused β-arrestin2
T1 sequence (P30939 1-366): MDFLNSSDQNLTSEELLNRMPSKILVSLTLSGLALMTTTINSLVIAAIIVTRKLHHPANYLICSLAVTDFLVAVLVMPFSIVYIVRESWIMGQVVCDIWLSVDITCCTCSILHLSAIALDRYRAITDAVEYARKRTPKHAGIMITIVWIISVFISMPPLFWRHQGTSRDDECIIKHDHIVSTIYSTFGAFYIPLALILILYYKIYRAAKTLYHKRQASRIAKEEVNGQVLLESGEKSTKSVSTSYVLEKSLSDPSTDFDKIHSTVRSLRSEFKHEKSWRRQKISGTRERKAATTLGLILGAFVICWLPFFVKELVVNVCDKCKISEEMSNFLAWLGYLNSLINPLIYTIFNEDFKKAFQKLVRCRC

[2] = molecular target: DRD2 (D2 long receptor) (Homo sapiens, UniProt P14416); assay: β-arrestin2 recruitment (Tango), HTLA cells; type: cell-based; conditions: for response, concentration-response data point (replicates): Fig_S10a, drug alone
[3] = molecular target: DRD3 wild-type (Homo sapiens, UniProt P35462); assay: Radioligand competition binding, [3H]-N-methylspiperone; conditions: DRD3 wild-type; read-out: pKi ± SEM (converted)
[4] = molecular target: DRD3 (Homo sapiens, UniProt P35462); assay: Gαi/o-mediated cAMP inhibition (GloSensor); type: cell-based; conditions: DRD3, cAMP inhibition
[5] = molecular target: T2, 5HT1A (Homo sapiens, UniProt P08908); assay: β-arrestin2 recruitment (Tango); type: cell-based; conditions: Fig_S10f, single replicates
T2 construct: expressed in transfected cells; host or cells: HTLA cells expressing TEV-fused β-arrestin2
T2 sequence (P08908 1-422): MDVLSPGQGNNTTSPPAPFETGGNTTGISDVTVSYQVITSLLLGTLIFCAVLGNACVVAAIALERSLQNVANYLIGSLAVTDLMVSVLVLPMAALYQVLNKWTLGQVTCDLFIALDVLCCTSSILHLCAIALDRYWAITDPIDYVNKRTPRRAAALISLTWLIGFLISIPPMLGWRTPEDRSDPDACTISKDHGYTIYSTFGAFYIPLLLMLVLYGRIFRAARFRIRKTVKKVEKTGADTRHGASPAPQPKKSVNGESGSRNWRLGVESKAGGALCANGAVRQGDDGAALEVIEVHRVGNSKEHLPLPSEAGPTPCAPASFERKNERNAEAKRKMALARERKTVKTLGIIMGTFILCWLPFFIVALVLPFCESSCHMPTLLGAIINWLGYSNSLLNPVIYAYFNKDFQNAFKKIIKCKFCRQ

DRD2 (D2 long receptor), sequence (P14416 whole entry): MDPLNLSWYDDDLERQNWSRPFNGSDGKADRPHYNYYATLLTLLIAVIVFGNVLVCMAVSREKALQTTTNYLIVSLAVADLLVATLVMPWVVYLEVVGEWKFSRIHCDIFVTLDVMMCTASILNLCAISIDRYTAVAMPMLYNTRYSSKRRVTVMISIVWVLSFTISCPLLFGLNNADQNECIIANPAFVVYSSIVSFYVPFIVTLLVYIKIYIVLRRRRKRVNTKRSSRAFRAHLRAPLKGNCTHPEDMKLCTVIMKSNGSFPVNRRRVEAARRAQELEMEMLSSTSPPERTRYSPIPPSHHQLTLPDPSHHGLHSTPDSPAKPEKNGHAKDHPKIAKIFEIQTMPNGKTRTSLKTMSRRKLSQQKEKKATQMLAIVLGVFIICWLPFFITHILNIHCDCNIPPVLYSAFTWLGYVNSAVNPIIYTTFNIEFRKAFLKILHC
DRD3, sequence (P35462 whole entry): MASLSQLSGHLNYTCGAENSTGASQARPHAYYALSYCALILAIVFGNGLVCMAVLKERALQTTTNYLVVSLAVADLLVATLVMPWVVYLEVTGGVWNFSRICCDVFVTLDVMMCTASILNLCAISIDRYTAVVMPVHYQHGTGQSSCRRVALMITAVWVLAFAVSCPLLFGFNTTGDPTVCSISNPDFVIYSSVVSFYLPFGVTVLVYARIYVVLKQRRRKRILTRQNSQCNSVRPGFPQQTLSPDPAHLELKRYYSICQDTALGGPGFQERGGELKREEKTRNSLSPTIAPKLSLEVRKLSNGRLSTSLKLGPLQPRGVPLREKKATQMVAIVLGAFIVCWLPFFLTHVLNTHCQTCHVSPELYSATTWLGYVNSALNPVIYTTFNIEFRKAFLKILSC
DRD3 wild-type, sequence (P35462 whole entry): as above

For `CCOc1cccc2cc([C@@H](C)NCC3(O)CCCCC3)oc12` [O4RE6], the “β-arrestin2 recruitment response, agonist mode (single replicate values)” value ([1]; Log[Drug] -10.52) was 0.6104 and 0.6079 and -0.2672 and -0.6094 and -0.8784 and -1.423 and 0.2215 and -0.4766 and -0.1562, the “β-arrestin2 recruitment response, agonist mode (single replicate values)” value ([1]; Log[Drug] -11) was -0.2991 and -0.7746 and -0.956 and -0.1975 and -1.559 and -1.001 and -0.7953 and -1.428 and -1.442 and the “β-arrestin2 recruitment response, agonist mode (single replicate values)” value ([1]; Log[Drug] -11.52) was 9.046 and 4.9 and 0.09315 and 0.6026 and -0.4766 and -1.413 and -2.451 and -1.372 and 1.5094. For the same compound, the “β-arrestin2 recruitment response, agonist mode (single replicate values)” value ([1]; Log[Drug] -12) was -1.25 and -0.8555 and 2.1082 and 1.035 and 1.318 and -2.3525 and 0.1164 and 0.6822 and -0.7969, the “Fig_S10j dose-response, drug alone (agonist mode), β-arrestin2 recruitment” value (“Fig_S10j dose-response, drug alone” for short) ([1]; Log[Drug] -5) was 1.292 and 2.037 and 1.765 and 2.135 and 0.1634 and 3.054 and 1.165 and -0.4495 and -0.04941 and the “Fig_S10j dose-response, drug alone” value ([1]; Log[Drug] -5.52) was -0.7085 and 0.2942 and 0.1765 and 0.7149 and -0.06809 and -1.164 and 0.2965 and -1.31 and 0.1036. For the same compound, the “Fig_S10j dose-response, drug alone” value ([1]; Log[Drug] -6) was -1.684 and 5.405 and 2.934 and -0.3268 and -0.4664 and -1.437 and 0.7141 and -1.815 and -1.243, the “Fig_S10j dose-response, drug alone” value ([1]; Log[Drug] -6.52) was 1.461 and 1.956 and 0.6766 and -2.305 and -1.43 and 2.938 and -0.4511 and -1.052 and 1.639 and the “Fig_S10j dose-response, drug alone” value ([1]; Log[Drug] -7) was -0.5859 and 0.3873 and 1.292 and -1.294 and -0.606 and 1.008 and -0.03666 and -1.56 and -1.246. The “Fig_S10j dose-response, drug alone” value ([1]; Log[Drug] -7.52) was -0.7844 and 5.5181 and -0.1961 and 0.48 and -1.147 and -0.875 and -0.2471 and -0.4702 and -1.368, the “β-arrestin2 recruitment agonist activity” value ([2]; DRD2, Tango) was “full agonist” and the EC50 ([2]; DRD2, β-arrestin2 recruitment (Tango), read-out: EC50 ± SEM) was 48.8 ± 9.47 nM. The “response, concentration-response data point (replicates)” value (“response … (replicates)” below) ([2]; Log[Drug] -5) was 104.045 and 116.205 and 96.7104 and 116.434 and 93.993 and 105.729 and 95.4582 and 106.414 and 85.5052, the “response … (replicates)” value ([2]; Log[Drug] -5.52) was 89.1788 and 85.4445 and 90.8217 and 84.5796 and 80.0855 and 101.122 and 96.0613 and 81.9697 and 99.3385 and the “response … (replicates)” value ([2]; Log[Drug] -6) was 82.8973 and 82.5495 and 79.2486 and 94.3704 and 78.2631 and 78.6908 and 80.3531 and 91.2175 and 73.5194. The “response … (replicates)” value ([2]; Log[Drug] -6.52) was 72.8482 and 85.473 and 74.6038 and 82.6009 and 103.942 and 82.378 and 70.1593 and 68.4699 and 74.397, the “response … (replicates)” value ([2]; Log[Drug] -7) was 71.4846 and 69.3009 and 62.1089 and 68.8602 and 55.9009 and 59.7861 and 54.6819 and 54.8285 and 54.3284 and the “response … (replicates)” value ([2]; Log[Drug] -7.52) was 50.7715 and 50.9759 and 58.0792 and 57.6214 and 43.2407 and 45.9376 and 55.9749 and 62.7315 and 56.5853. The “response … (replicates)” value ([2]; Log[Drug] -8) was 39.7841 and 36.3747 and 29.4664 and 31.1292 and 29.8397 and 30.2988 and 27.2382 and 26.622 and 26.0732, the “response … (replicates)” value ([2]; Log[Drug] -8.52) was 13.2168 and 14.3867 and 13.161 and 13.9303 and 10.9069 and 10.856 and 10.5462 and 11.4912 and 11.2421 and the “response … (replicates)” value ([2]; Log[Drug] -9) was 7.123 and 6.617 and 6.837 and 5.043 and 6.064 and 6.895 and 5.588 and 6.122 and 5.826. For the same compound, the “response … (replicates)” value ([2]; Log[Drug] -11) was 5.0524, the “response … (replicates)” value ([2]; Log[Drug] -11.52) was 4.975 and 5.004 and 4.993 and 4.845 and 4.81 and 4.615 and 4.945 and 4.7318 and 4.6555 and the “response … (replicates)” value ([2]; Log[Drug] -12) was 4.9053 and 4.975 and 5.325 and 4.582 and 4.593 and 4.629 and 5.065 and 4.845 and 4.581. For the same compound, the Emax ([2]; HTLA, read-out: Emax relative to quinpirole response, DRD2, Tango) was 99.6%, the “β-arrestin2 recruitment response at DRD2 (source data, replicate values)” value (shortened to “β-arrestin2 recruitment response at DRD2”) ([2]; Log[Drug] -5) was 73.5777 and 57.7969 and 60.7943 and 65.7822 and 71.9755 and 71.4753 and 62.0106 and the “β-arrestin2 recruitment response at DRD2” value ([2]; Log[Drug] -5.52) was 50.6787 and 47.7474 and 41.401 and 56.0167 and 52.8546 and 51.367 and 55.6817. The “β-arrestin2 recruitment response at DRD2” value ([2]; Log[Drug] -6) was 39.3966 and 41.1099 and 37.2084 and 41.7585 and 38.5021 and 38.079 and 42.2149, the “β-arrestin2 recruitment response at DRD2” value ([2]; Log[Drug] -6.52) was 17.548 and 17.9218 and 22.2395 and 30.2893 and 22.7451 and 19.4102 and 21.7916 and the “β-arrestin2 recruitment response at DRD2” value ([2]; Log[Drug] -7) was 9.564 and 7.739 and 7.708 and 7.415 and 7.649 and 7.113 and 9.501. The “β-arrestin2 recruitment response at DRD2” value ([2]; Log[Drug] -7.52) was 5.75 and 5.841 and 5.282 and 5.619 and 6.782 and 5.749 and 5.8801, the “β-arrestin2 recruitment response at DRD2” value ([2]; Log[Drug] -8) was 5.434 and 5.45 and 5.389 and 5.042 and 5.329 and 5.148 and 5.345 and the “β-arrestin2 recruitment response at DRD2” value ([2]; Log[Drug] -8.52) was 5.277 and 5.01 and 4.9419 and 4.98 and 5.0858 and 5.308 and 5.178. For the same compound, the “β-arrestin2 recruitment response at DRD2” value ([2]; Log[Drug] -9) was 5.4097 and 5.385 and 5.128 and 4.863 and 4.947 and 4.805 and 4.8829, the “β-arrestin2 recruitment response at DRD2” value ([2]; Log[Drug] -9.52) was 5.139 and 4.887 and 4.831 and 4.75 and 5.079 and 5.123 and 4.823 and the “β-arrestin2 recruitment response at DRD2” value ([2]; Log[Drug] -10) was 5.431 and 4.786 and 4.659 and 4.856 and 4.756 and 4.79 and 4.8682. For the same compound, the “β-arrestin2 recruitment response at DRD2” value ([2]; Log[Drug] -10.52) was 5.022 and 4.798 and 4.776 and 4.763 and 4.86 and 4.945 and 4.841, the “β-arrestin2 recruitment response at DRD2” value ([2]; Log[Drug] -11) was 4.915 and 4.765 and 4.615 and 4.7302 and 4.774 and 4.749 and 4.971 and the “β-arrestin2 recruitment response at DRD2” value ([2]; Log[Drug] -11.52) was 4.946 and 4.662 and 4.627 and 4.695 and 4.751 and 4.656 and 4.732. The Ki [3] was 115 nM, the EC50 ([4]; agonist, read-out: EC50 ± SEM) was 7.12 ± 0.08 nM and the “G protein agonist activity” value [4] was “partial agonist”. For the same compound, the Emax ([4]; read-out: Emax relative to quinpirole response) was 52.4%, the “β-arrestin2 recruitment response, agonist mode (normalized)” value ([5]; Log[Drug] -9.52) was -0.3383 and -0.3342 and -0.9983 and -0.221 and -0.03249 and 2.194 and -0.4129 and -0.6658 and 0.08323 and the “β-arrestin2 recruitment response, agonist mode (normalized)” value ([5]; Log[Drug] -10) was -0.1671 and -0.3383 and -0.5054 and -0.1386 and -0.3173 and 2.583 and 0.605 and 2.666 and 1.376. The “β-arrestin2 recruitment response, agonist mode (normalized)” value ([5]; Log[Drug] -10.52) was 0 and 0.5013 and 0.1546 and 0.5578 and -0.1419 and 1.096 and 1.898 and -0.4417 and 0.06082, the “β-arrestin2 recruitment response, agonist mode (normalized)” value ([5]; Log[Drug] -11) was -0.5138 and -0.6767 and 1.165 and 0.7257 and 0.3249 and 3.762 and 0.9795 and 5.224 and 0.4673 and the “β-arrestin2 recruitment response, agonist mode (normalized)” value ([5]; Log[Drug] -11.52) was 1.8254 and -0.1796 and 0.1546 and 0.208 and -0.007582 and -0.4495 and -0.8035 and 0.7362 and -0.4065. The “β-arrestin2 recruitment response, agonist mode (normalized)” value ([5]; Log[Drug] -12) was -0.1713 and 0.3383 and -0.1671 and 0.2155 and 0.391 and -0.6055 and 0.7554 and -0.4001 and 0.1248.

Source: article PMC7044277 (Nature Communications, 2020)
